The test concerns the target T1, TcXyn30B (Talaromyces pinophilus, UniProt A0A510NXC4).
T1 construct: gene TCE0_018f06110; no His tag; vector residues AYVEF at N-terminus (numbered 18-22); secreted from Pichia pastoris GS115, N-glycosylated, 62182 Da; one molecule per asymmetric unit
T1 sequence (A0A510NXC4 23-474): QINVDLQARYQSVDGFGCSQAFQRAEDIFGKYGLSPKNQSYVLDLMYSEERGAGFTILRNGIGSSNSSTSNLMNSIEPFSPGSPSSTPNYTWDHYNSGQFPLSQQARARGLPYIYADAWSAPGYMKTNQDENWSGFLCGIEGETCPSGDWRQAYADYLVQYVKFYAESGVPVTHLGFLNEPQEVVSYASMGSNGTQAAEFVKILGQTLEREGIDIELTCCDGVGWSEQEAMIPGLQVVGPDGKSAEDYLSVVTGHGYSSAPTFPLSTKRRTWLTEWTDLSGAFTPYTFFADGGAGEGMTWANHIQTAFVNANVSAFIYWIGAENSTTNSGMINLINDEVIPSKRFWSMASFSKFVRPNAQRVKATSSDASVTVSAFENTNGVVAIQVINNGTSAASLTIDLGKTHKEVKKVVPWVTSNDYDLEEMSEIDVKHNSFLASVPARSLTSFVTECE
Kind of test: X-ray crystallography (co-crystal, […] Å). Type of test: binding. To be noted: co-crystallised with aldouronic acid mixture (Megazyme); pH 7.3, MgCl2; subsites -1, -2a and -2b of active site.

Take `CO[C@H]1[C@H](O)[C@@H](O)[C@@H](O[C@H]2[C@H](O[C@@H]3COC(O)[C@H](O)[C@H]3O)OC[C@@H](O)[C@@H]2O)O[C@@H]1C(=O)O` (stereo partly drawn) [U^4m2X, 2^2‐(4‐O‐methyl‐α‐D‐glucuronyl)‐xylobiose]: the “X-ray crystallography (co-crystal, 1.65 Å)” value is listed as “A clear density map for U^4m2X is observed in the active cleft”.

For the origin of these results see PMC7262913, “Substrate recognition by a bifunctional GH30‐7 xylanase B from Talaromyces cellulolyticus” (FEBS Open Bio, 2020).
